Publication PMC11192711, “Automated radiosynthesis and preclinical evaluation of two new PSMA-617 derivatives radiolabelled via [^18F]AlF^2+ method” (EJNMMI Radiopharmacy and Chemistry, 2024)
Each block holds one compound with its values, some of them ahead of it.

Assays:
PSMA = biological target: T1, PSMA (Homo sapiens, UniProt Q04609); experiment: Competitive cell binding assay on fixed PC3-PIP cells against [^18F]F-PSMA-1007; details: 0.75 nM [^18F]F-PSMA-1007, 60 min room temperature, read-out: inhibition potency toward PMSA (IC50)
T1 construct: expressed in transfected cells; host or cells: PC3-PIP cells (PC3 stably expressing PSMA), fixed with 0.2% glutaraldehyde
T1 sequence (Q04609 whole entry): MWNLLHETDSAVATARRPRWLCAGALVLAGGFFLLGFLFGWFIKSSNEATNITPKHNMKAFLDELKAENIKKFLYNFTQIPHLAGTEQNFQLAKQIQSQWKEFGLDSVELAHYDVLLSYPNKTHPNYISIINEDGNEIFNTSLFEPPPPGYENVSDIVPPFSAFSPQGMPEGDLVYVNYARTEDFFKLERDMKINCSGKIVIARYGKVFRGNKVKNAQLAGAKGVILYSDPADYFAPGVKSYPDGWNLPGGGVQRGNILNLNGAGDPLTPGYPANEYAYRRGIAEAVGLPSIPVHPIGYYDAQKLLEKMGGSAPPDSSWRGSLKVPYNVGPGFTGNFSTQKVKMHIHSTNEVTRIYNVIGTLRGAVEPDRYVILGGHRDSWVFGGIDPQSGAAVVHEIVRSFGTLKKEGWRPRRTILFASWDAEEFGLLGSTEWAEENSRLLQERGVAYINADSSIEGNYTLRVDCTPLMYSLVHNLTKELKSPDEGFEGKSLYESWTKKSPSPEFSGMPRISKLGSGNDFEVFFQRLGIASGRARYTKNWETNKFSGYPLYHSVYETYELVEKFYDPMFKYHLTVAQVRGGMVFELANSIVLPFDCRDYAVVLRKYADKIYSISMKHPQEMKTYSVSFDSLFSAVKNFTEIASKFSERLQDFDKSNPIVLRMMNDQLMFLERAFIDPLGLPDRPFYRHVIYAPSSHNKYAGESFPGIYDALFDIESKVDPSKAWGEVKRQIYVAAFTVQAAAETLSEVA
Procedure: Competitive cell binding experiments were conducted using PC3-PIP cells, [^18F]F-PSMA-1007, 300 nM PSMA-1007, and 8 different concentrations of PSMA-617-NODA (7) and PSMA-617-RESCA (9) (0, 0.01, 0.1, 1, 10, 100, 1000, 10,000 nM).
For in vitro uptake, the PC3-PIP cell line, which is isogenic to PC3 and stably expresses PSMA(Ghosh et al. [2005]), and PC-3 cell line (PSMA negative) were used. 40.000 PC3-PIP and PC3 cells were seeded in 96-well cell culture plates and at the confluence were fixed adding 100 µl of 0.2% glutaraldehyde in PBS to medium. After 5 min incubation at 37 °C, the cells were washed six times with PBS. Then 200 µl of 0.1 M Glycine in PBS with 0.02% of sodium azide were added. After 5 min, the cells were washed 6 times with PBS and finally 250 µl of 1% BSA in PBS with 0.2% of sodium azide were added. The competitive cell binding assays were performed as follows: PC3-PIP fixed cells were incubated with [^18F]F-PSMA-1007 at a concentration of 0.75 nM in the presence of 8 different concentrations of PSMA-617-NODA (7) and PSMA-617-RESCA (9) (0, 0.01, 0.1, 1, 10, 100, 1000, 10,000 nM) and of 300 nM of PSMA-1007. […] The activity in the supernatants and cell pellets was determined using a gamma counter (1282 Compugamma CS, LKB Wallac, Finland). Cellular uptake was calculated as the percentage of radioactivity in cell pellets. […]

[1] = test system: Gli36ΔEGFR tumours-bearing nude mice; experiment: PET/CT in vivo biodistribution and tumour uptake in orthotopic Gli36ΔEGFR glioma model; details: n = 3; for Bone (SUV mean) / Brain (SUV mean) / Colon (SUV mean) / Gall bladder (SUV mean) / Heart (SUV mean) / Kidney (SUV mean) / Liver (SUV mean) / Lung (SUV mean) / Muscle (SUV mean) / Salivary gland (SUV mean) / Small instestine (SUV mean): Gli36ΔEGFR female nude mice, i.v., PET/CT; for tumour-to-contralateral healthy brain ratio (tumour SUV max/contralateral SUV mean): Gli36ΔEGFR orthotopic glioma, nude mice
Procedure: Subsequently, we evaluated the uptake of [^18F]F-PSMA-617-NODA ([^18F]1) and [^18F]F-PSMA-617-RESCA ([^18F]2) in an orthotopic glioma model obtained with Gli36ΔEGFR cells in female nude mice. Gli36ΔEGFR tumours-bearing nude mice (n = 3) were injected i.v. with either [^18F]F-PSMA-617-NODA or [^18F]F-PSMA-617-RESCA (~ 3.8 MBq/mouse, ~ 50 pmol for [^18F]1 and ~ 170 pmol [^18F]2). Radiotracer uptake was assessed after 10, 60 and 120 min post injection by whole-body PET/CT acquisitions. Also in nude female mice, a rapid clearance of [^18F]1 in all organs and the same kinetic observed in NSG male mice (Additional file 1: S71A and B) were confirmed. […] It is interesting to note that the uptake of [^18F]1 in kidneys decreased over time in both models (Additional file 1: S71A and B), while the uptake of [^18F]F-PSMA-1007 in NSG model and [^18F]2 in nude female mice model increased (Additional file 1: S71C and D).
Total body biodistribution of [^18F]F-PSMA-1007, [^18F]F-PSMA-617-NODA and [^18F]F-PSMA-617-RESCA was evaluated in vivo using imaging PET/CT. [^18F]F-PSMA-617-NODA uptake was compared to that of the [^18F]F-PSMA-1007 in a PSMA positive prostate tumour xenograft model (LNCaP). [^18F]F-PSMA-617-NODA and [^18F]F-PSMA-617-RESCA uptake were also evaluated using an orthotopic glioma model (Gli36ΔEGFR).
5 × 10^5 Gli36ΔEGFR cells were injected in the right striatum of seven to eight weeks old female nude mice (Envigo RMS s.r.l., Italy) as previously described (Valtorta et al. [2021]). Ten days after mice underwent a T2-weighted Magnetic Resonance Imaging (MRI) using a 7 T small animal magnetic resonance scanner (Bruker, BioSpec 70/30 USR, Paravision 5.1, Germany) to confirm the growth of the tumour. Then, the same mice underwent in vivo biodistribution of [^18F]F-PSMA-617-NODA and [^18F]F-PSMA-617-RESCA, on successive but non-consecutive days, using PET/CT.
Mice were injected into a tail vein with 3.8 ± 0.1 MBq of [^18F]F-PSMA-1007, 4.0 ± 0.2 MBq of [^18F]F-PSMA-617-NODA ([^18F]1) and 3.8 ± 0.1 MBq of [^18F]F-PSMA-617-RESCA ([^18F]2), respectively.
Total body PET/CT acquisitions were performed using PET/CT tomographs dedicated to small animals, X-ß-CUBE (Molecubes, Gent, Belgium) after 10, 60 and 120 min from tracer injection. Each acquisition lasted 30 min and mice were maintained anesthetized (4% isoflurane in induction and 2% in maintenance in air) during acquisition.
Image quantification analysis was performed with PMOD 4.105 software (Zurich, Switzerland). Volumes of interest (VOIs) were drawn on peripheral organs (tumour, thoracic muscle, heart, liver, kidney, salivary glands, lung, small intestine, colon, bone, gall bladder) and on the healthy brain using CT images. For the glioma model, PET/CT images were co-registered to MRI images and two different VOIs were defined: (1) a control VOI covering the healthy left striatum (volume 4 mm^3) was drawn on the axial MR images, adjusted on the other imaging planes and then copied on the PET images of each mouse; (2) a second glioma-covering VOI was drawn in the tumour-affected brain hemisphere and centered on mice lesions.
For quantification, Standardized Uptake Value (SUV) was calculated according to the formula:
SUV = organ concentration activity [MBq/g]/(injected activity [MBq]/animal weight [g]).
The data were expressed as standardized-uptake-values (SUVmean and SUVmax) and as tumour-to-muscle (T/M) and tumour-to-blood (T/B) ratio in PCa model and as tumour-to-contralateral (T/Cl) ratio in glioma model.

[2] = Stability in final solution (analytical HPLC and radio-TLC); type: physicochemical; details: for release of [^18F]AlF^2+: in solution
Procedure: Chemical and radiochemical stability in the final solution were tested by analytical HPLC and radio-TLC (Additional file 1: S37–S41); samples of the purified product were analyzed up to four hours after the end of radiosynthesis, at time intervals of two hours and storing the vial at room temperature.
Stability in solution of [^18F]F-PSMA-617-NODA ([^18F]1) and [^18F]F-PSMA-617-RESCA ([^18F]2) were evaluated injecting in RP-HPLC (for experimental conditions, see sections “(((S)-5-((S)-2-((1R,4S)-4-((4-(4,7-bis(carboxymethyl)-1,4,7-triazonan-1-yl)butanamido)methyl)cyclohexane-1-carboxamido)-3-(naphthalen-2-yl)propanamido)-1-carboxypentyl)carbamoyl)-L-glutamic acid [^18F] aluminium fluoride ([^18F] 1)” and “(((S)-5-((S)-2-((1R,4S)-4-((2-(4-((((1R,2R)-2-(bis(carboxymethyl)amino)cyclohexyl)(carboxymethyl)amino)methyl)phenyl)acetamido)methyl)cyclohexane-1-carboxamido)-3-(naphthalen-2-yl)propanamido)-1-carboxypentyl)carbamoyl)-L-glutamic acid [18F] aluminium fluoride ([18F] 2)”) samples (20 µl) of respective radiopharmaceutical solutions at t = 0 (EOS), after 2 h and after 4 h. Moreover, ≈ 7.5 kBq of [^18F]1 or [^18F]2 solution were deposited on TLC sheet. The TLC was imaged using Cyclone® Plus Phosphor Scanner and software OptiQuant™.

[3] = Stability in human plasma (HPLC, radio-TLC, pellet/supernatant activity); type: in vitro ADME; details: ACN precipitation
Procedure: Stability in plasma was evaluated mixing aliquots of [^18F]1 or [^18F]2 solutions (10 MBq for 2 h incubation and 20 MBq for 4 h incubation samples) with 200 µL of human serum. The mixtures were incubated at 37 °C. Aliquots were taken at 2 h and 4 h. Plasma pellet was precipitated with 200 µL acetonitrile and centrifuged (13,500 rpm, 10 min). The supernatant was removed, and the activity of the supernatant solution and pellet was measured using a dose calibrator (VIK-202 Comecer). The supernatant solution was analyzed injecting in RP-HPLC (diluted 1:5 in water) and Radio-TLC as above described.

[4] = [18F]2, 2 h incubation in plasma, total activity incubated 3.91 MBq
[5] = [18F]2, 4 h incubation in plasma, total activity incubated 4.62 MBq

Compound: O=C(O)CCC(NC(=O)NC(CCCCNC(=O)C(Cc1ccc2ccccc2c1)NC(=O)C1CCC(CNC(=O)Cc2ccc(CN(CC(=O)O)C3CCCCC3N(CC(=O)O)CC(=O)O)cc2)CC1)C(=O)O)C(=O)O [PSMA-617-RESCA, (((S)-5-((S)-2-((1R,4S)-4-((2-(4-((((1R,2R)-2-(bis(carboxymethyl)amino)cyclohexyl)(carboxymethyl)amino)methyl)phenyl)acetamido)methyl)cyclohexane-1-carboxamido)-3-(naphthalen-2-yl)propanamido)-1-carboxypentyl)carbamoyl)-L-glutamic acid]
IC50 (PSMA): 20 nM

Compound: O=C(O)CCC(NC(=O)NC(CCCCNC(=O)C(Cc1ccc2ccccc2c1)NC(=O)C1CCC(CNC(=O)Cc2ccc(CN(CC(=O)O)C3CCCCC3N(CC(=O)O)CC(=O)O)cc2)CC1)C(=O)O)C(=O)O.[18F][Al] [[^18F]F-PSMA-617-RESCA, (((S)-5-((S)-2-((1R,4S)-4-((2-(4-((((1R,2R)-2-(bis(carboxymethyl)amino)cyclohexyl)(carboxymethyl)amino)methyl)phenyl)acetamido)methyl)cyclohexane-1-carboxamido)-3-(naphthalen-2-yl)propanamido)-1-carboxypentyl)carbamoyl)-L-glutamic acid [^18F] aluminium fluoride]
Bone (SUV mean) ([1]; 10 min p.i.): 0.21 ± 0.03
Brain (SUV mean) ([1]; 10 min p.i.): 0.09 ± 0.02
Colon (SUV mean) ([1]; 10 min p.i.): 0.29 ± 0.23
Gall bladder (SUV mean) ([1]; 10 min p.i.): 3.28 ± 3.18
Heart (SUV mean) ([1]; 10 min p.i.): 0.35 ± 0.05
Kidney (SUV mean) ([1]; 10 min p.i.): 6.92 ± 1.16
Liver (SUV mean) ([1]; 10 min p.i.): 0.98 ± 0.15
Lung (SUV mean) ([1]; 10 min p.i.): 0.31 ± 0.01
Muscle (SUV mean) ([1]; 10 min p.i.): 0.19 ± 0.05
Salivary gland (SUV mean) ([1]; 10 min p.i.): 0.54 ± 0.14
Small instestine (SUV mean) ([1]; 10 min p.i.): 1.99 ± 1.44
Bone (SUV mean) ([1]; 60 min p.i.): 0.20 ± 0.07
Brain (SUV mean) ([1]; 60 min p.i.): 0.07 ± 0.02
Colon (SUV mean) ([1]; 60 min p.i.): 0.78 ± 1.05
Gall bladder (SUV mean) ([1]; 60 min p.i.): 5.22 ± 4.23
Heart (SUV mean) ([1]; 60 min p.i.): 0.17 ± 0.03
Kidney (SUV mean) ([1]; 60 min p.i.): 10.21 ± 0.80
Liver (SUV mean) ([1]; 60 min p.i.): 0.65 ± 0.22
Lung (SUV mean) ([1]; 60 min p.i.): 0.19 ± 0.04
Muscle (SUV mean) ([1]; 60 min p.i.): 0.12 ± 0.02
Salivary gland (SUV mean) ([1]; 60 min p.i.): 0.45 ± 0.10
Small instestine (SUV mean) ([1]; 60 min p.i.): 3.07 ± 1.02
Bone (SUV mean) ([1]; 120 min p.i.): 0.15 ± 0.11
Brain (SUV mean) ([1]; 120 min p.i.): 0.07 ± 0.01
Colon (SUV mean) ([1]; 120 min p.i.): 3.87 ± 5.37
Gall bladder (SUV mean) ([1]; 120 min p.i.): 5.07 ± 4.26
Heart (SUV mean) ([1]; 120 min p.i.): 0.11 ± 0.03
Kidney (SUV mean) ([1]; 120 min p.i.): 10.64 ± 1.25
Liver (SUV mean) ([1]; 120 min p.i.): 0.30 ± 0.11
Lung (SUV mean) ([1]; 120 min p.i.): 0.12 ± 0.03
Muscle (SUV mean) ([1]; 120 min p.i.): 0.11 ± 0.04
Salivary gland (SUV mean) ([1]; 120 min p.i.): 0.28 ± 0.10
Small instestine (SUV mean) ([1]; 120 min p.i.): 5.79 ± 2.07
tumour-to-contralateral healthy brain ratio (tumour SUV max/contralateral SUV mean) ([1]; 60 min p.i.): 2.93 ± 1.23
tumour-to-contralateral healthy brain ratio (tumour SUV max/contralateral SUV mean) ([1]; 120 min p.i.): 2.93 ± 0.08
amount of free [^18F]AlF^2+ in solution ([2]; approximately 85 min after EOS (time of injection), supposed): < 5%
release of [^18F]AlF^2+ ([2]; after 2 h of incubation at room temperature): 4.9%
release of [^18F]AlF^2+ ([2]; at EOS): 1.2%
release of [^18F]AlF^2+ ([2]; room temperature, after 4 h): 10%
Pellet activity [3, 4]: 0.45 MBq
Supernatant activity [3, 4]: 3.46 MBq
Pellet activity [3, 5]: 0.57 MBq
Supernatant activity [3, 5]: 4.05 MBq

IC50 (PSMA): 64 nM
Compound: O=C(O)CC[C@H](NC(=O)N[C@@H](CCCCNC(=O)[C@H](Cc1ccc2ccccc2c1)NC(=O)[C@H]1CC[C@H](CNC(=O)CCCN2CCN(CC(=O)O)CCN(CC(=O)O)CC2)CC1)C(=O)O)C(=O)O [PSMA-617-NODA, (((S)-5-((S)-2-((1R,4S)-4-((4-(4,7-bis(carboxymethyl)-1,4,7-triazonan-1-yl)butanamido)methyl)cyclohexane-1-carboxamido)-3-(naphthalen-2-yl)propanamido)-1-carboxypentyl)carbamoyl)-L-glutamic acid]
